Source: patent US8598157B2, “5-alkynyl-pyridines” (Boehringer Ingelheim International GmbH, priority 2011, dated 2013)

Assays:
PI3Kalpha = PI3Kalpha (Homo sapiens (Human), UniProt P42336); assay: Inhibition of PI3Kalpha-induced PIP-2 phosphorylation (filter-binding assay); format: biochemical; details: 33P-ATP, p85alpha/His-p110alpha, read-out: IC50 PI3Kα
Outline: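 Radiometric filter-binding assay: PI3Kα (25 ng/well) preincubated 20 min at room temperature with compound and PIP2-containing lipid vesicles plus phosphotyrosine PDGFRβ peptide. Reaction started with cold ATP (1 μM final) and [33P]-ATP and run 120 min at room temperature; filter-captured radioactivity counted, IC50 from duplicate dilution series.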

H460 cells = assay: alamarBlue H460 cell assay (antiproliferative/cytotoxicity); format: cell-based; details: NCI-H460; H460 human lung carcinoma cells
Outline: (§1)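 After overnight attachment at 37 °C, cells receive a ten-point, 1:3 dilution series starting at 10 μM final, in duplicate, with untreated medium/DMSO controls. Following 5-6 days, alamarBlue is incubated 8 h and emission at 590 nm recorded.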

MB453 cells = assay: alamarBlue MB453 cell assay (antiproliferative/cytotoxicity); format: cell-based; details: Homo sapiens; MDA MB 453 breast cancer cell line
Outline: as §1

U87 cells = assay: U87 cell assay (antiproliferative/cytotoxicity); format: cell-based; details: U-87MG human glioblastoma cells
Outline: as §1

MCF7 cells = assay: alamarBlue MCF7 cell assay (antiproliferative/cytotoxicity); format: cell-based; details: MCF7 human breast cancer cell line
Text: The H460, MB453, U87, MCF7 and BT474 alamarBlue cell assays provide EC50 values indicative of the antiproliferative or cytotoxic effects of the compounds to respectively the H460 (human non small cell line cancer), MB-453 (breast cancer cell line), U87 (glioblastoma cell line), MCF7 (breast cancer cell line) and BT474 (breast cancer cell line). As known in the field, antiproliferative or cytotoxic effect against this cell lines would be expected to be indicative of activity in treating lung, breast and brain cancers. See R. Marone R et al. Biochim. Biophys. Acta. 2008 January; 1784(1):159-85. S. Yaguchi et al., J. Natl. Cancer Inst. 2006 Apr. 19; 98(8):545-56.
Method Type: Antiproliferative/Cytotoxicity
alamarBlue® is designed to provide a rapid and sensitive measure of cell proliferation and cytotoxicity in various human and animal cell lines. The assay is based on the reduction of alamarBlue in the reducing environment of living (metabolically active) cells. In the presence of added cytotoxic or antiproliferative compounds, the innate metabolic activity ceases.
AlamarBlue is soluble and stable in culture medium. Measurements are made fluorometrically by exciting at 530-560 nm and measuring emission at 590 nm. In reporting percent alamarBlue reduction by monitoring fluorescence, data are expressed as fluorescence emission intensity units as a function of time of incubation.
3. Equipment • 96-well plates, flat bottom (Falcon, Cat. No.: 353072) • 96-well plates, U-shaped (Costar, Cat. No.: 3799) • CO2-Incubator • Microplate Reader, Spectramax Plus, Molecular Devices 4. Typical Procedure • Day 0: Seed 3000 BT-474 cells (IMDM/5% FCS, 1% NEAA, 1% Sodiumpyruvat) in 150 μl medium into a 96-well plate, flat bottom (include mediumblank). Incubate plates at 37° C. in a CO2 incubator overnight. • Day 1: Dilute compounds to a concentration 40 μM->1:3 in medium, 10 dilution steps, in 96-well plates. • Add 50 μl per well of each dilution (total volume per well 200 μl; final conc. of cpds: 10 μM->1:3). If required, test further dilutions. • All concentrations are tested in duplicates. • Controls: Cells w/o cpd. (+50 μl medium/DMSO). • Cells are incubated with compounds for 5-6 days. • Day 6 or 7: Add 25 μl of alamarBlue solution to each well and incubate for 8 hours at 37° C. Measure fluorescence by exciting at 530-560 nm and measuring emission at 590 nm. 5. Evaluation • Subtract average value for medium blank from sample readings • Calculate EC50 using GraphPad Prism (Fifty)

BT474 cells = assay: alamarBlue BT474 cell assay (antiproliferative/cytotoxicity); format: cell-based; details: BT-474 human breast cancer cell line
Outline: as §1

Chain of PI3Kalpha (P42336 whole entry): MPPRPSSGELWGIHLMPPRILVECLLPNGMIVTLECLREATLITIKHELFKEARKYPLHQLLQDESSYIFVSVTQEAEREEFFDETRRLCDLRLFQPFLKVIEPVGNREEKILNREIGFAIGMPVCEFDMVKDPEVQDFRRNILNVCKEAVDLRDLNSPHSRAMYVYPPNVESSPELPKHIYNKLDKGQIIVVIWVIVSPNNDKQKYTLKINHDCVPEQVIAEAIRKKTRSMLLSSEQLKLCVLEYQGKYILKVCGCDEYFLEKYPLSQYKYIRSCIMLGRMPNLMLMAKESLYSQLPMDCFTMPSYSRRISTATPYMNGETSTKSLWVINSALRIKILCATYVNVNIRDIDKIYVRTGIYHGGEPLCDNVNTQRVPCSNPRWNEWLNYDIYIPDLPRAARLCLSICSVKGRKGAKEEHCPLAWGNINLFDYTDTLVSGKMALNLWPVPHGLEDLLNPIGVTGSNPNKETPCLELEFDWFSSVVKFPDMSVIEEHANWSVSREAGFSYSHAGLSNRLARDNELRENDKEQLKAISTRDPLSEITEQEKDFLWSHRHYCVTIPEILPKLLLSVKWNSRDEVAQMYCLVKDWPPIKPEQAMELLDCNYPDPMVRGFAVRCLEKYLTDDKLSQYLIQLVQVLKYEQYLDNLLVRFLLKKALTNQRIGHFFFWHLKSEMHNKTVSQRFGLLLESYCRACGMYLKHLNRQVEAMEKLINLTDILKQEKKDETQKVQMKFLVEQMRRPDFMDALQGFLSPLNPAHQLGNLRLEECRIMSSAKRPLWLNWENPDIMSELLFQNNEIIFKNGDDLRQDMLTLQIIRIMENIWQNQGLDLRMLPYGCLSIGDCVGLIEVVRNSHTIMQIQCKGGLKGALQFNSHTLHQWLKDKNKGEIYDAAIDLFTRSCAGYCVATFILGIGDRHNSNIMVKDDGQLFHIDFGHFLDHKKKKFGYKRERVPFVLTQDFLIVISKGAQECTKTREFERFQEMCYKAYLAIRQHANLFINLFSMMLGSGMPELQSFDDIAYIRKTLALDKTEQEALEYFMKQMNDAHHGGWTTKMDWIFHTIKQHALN

Row | Structure (SMILES) | IC50 (PI3Kalpha) | EC50 (H460 cells) | EC50 (MB453 cells) | EC50 (U87 cells) | EC50 (MCF7 cells) | EC50 (BT474 cells)
1 | Cc1ncc(C#Cc2c(C)ncnc2N(C)C2CCOCC2)cc1NS(=O)(=O)c1ccc(F)cc1F [Example I-16, 2,4-Difluoro-N-(2-methyl-5-{4-methyl-6-[methyl-(tetrahydro-pyran-4-yl)-amino]-pyrimidin-5-ylethynyl}-pyridin-3-yl)-benzenesulfonamide] | 0.00086 µM | 0.226 µM | 0.397 µM | 0.839 µM | 0.118 µM | 0.309 µM
2 | CC(=O)N1CCN(c2ncnc(C)c2C#Cc2cnc(C)c(NS(=O)(=O)c3ccc(F)cc3F)c2)CC1 [Example I-17, N-{5-[4-(4-Acetyl-piperazin-1-yl)-6-methyl-pyrimidin-5-ylethynyl]-2-methyl-pyridin-3-yl}-2,4-difluoro-benzenesulfonamide] | 0.00079 µM | 0.965 µM | 0.521 µM | 1.89 µM | 0.073 µM | 0.354 µM
3 | Cc1ncc(C#Cc2c(C)ncnc2N2CCN(C)CC2)cc1NS(=O)(=O)c1ccc(F)cc1F [Example I-18, 2,4-Difluoro-N-{2-methyl-5-[4-methyl-6-(4-methyl-piperazin-1-yl)-pyrimidin-5-ylethynyl]-pyridin-3-yl}-benzenesulfonamide] | 0.001 µM | 0.269 µM | 0.418 µM | 0.358 µM | 0.072 µM | 0.221 µM
4 | Cc1ncnc(N2CCOCC2)c1C#Cc1cncc(NS(=O)(=O)c2cccnc2)c1 [Example I-22, Pyridine-3-sulfonic acid [5-(4-methyl-6-morpholin-4-yl-pyrimidin-5-ylethynyl)-pyridin-3-yl]-amide] | 0.0008 µM | 4.5 µM | 1.42 µM | 10 µM | 1.38 µM | 3.41 µM
5 | Cc1ncnc(N2CCOCC2)c1C#Cc1cncc(NS(=O)(=O)c2cnn(C)c2)c1 [Example I-23, 1-Methyl-1H-pyrazole-4-sulfonic acid [5-(4-methyl-6-morpholin-4-yl-pyrimidin-5-ylethynyl)-pyridin-3-yl]-amide] | 0.00066 µM | 2.19 µM | 1.03 µM | 1.75 µM | 0.214 µM | 3.5 µM
6 | CCc1ncnc(N(C)C)c1C#Cc1cnc(C)c(NS(=O)(=O)c2ccc(F)cc2)c1 [Example I-27, N-[5-(4-Dimethylamino-6-ethyl-pyrimidin-5-ylethynyl)-2-methyl-pyridin-3-yl]-4-fluoro-benzenesulfonamide] | 0.001 µM | 0.791 µM | 1.22 µM | 1.62 µM | 10 µM | 10 µM
7 | CCc1ncnc(N2CCN(C3CC3)CC2)c1C#Cc1cnc(C)c(NS(=O)(=O)c2ccc(F)cc2)c1 [Example I-28, N-{5-[4-(4-Cyclopropyl-piperazin-1-yl)-6-ethyl-pyrimidin-5-ylethynyl]-2-methyl-pyridin-3-yl}-4-fluoro-benzenesulfonamide] | 0.005 µM | 0.756 µM | 1.85 µM | 14.4 µM | 10 µM | 10 µM
8 | Cc1ncc(C#Cc2c(C)ncnc2N2CCOCC2)cc1NS(=O)(=O)c1cc(F)cc(F)c1 [Example I-31, 3,5-Difluoro-N-[2-methyl-5-(4-methyl-6-morpholin-4-yl-pyrimidin-5-ylethynyl)-pyridin-3-yl]-benzenesulfonamide] | 0.00097 µM | 0.509 µM | 0.245 µM | 0.609 µM | 0.05 µM | 0.178 µM
9 | CCc1ncnc(N(C)C)c1C#Cc1cnc(C)c(NS(C)(=O)=O)c1 [Example I-32, N-[5-(4-Dimethylamino-6-ethyl-pyrimidin-5-ylethynyl)-2-methyl-pyridin-3-yl]-methanesulfonamide] | 0.008 µM | 1.21 µM | 0.656 µM | 1.29 µM | 0.617 µM | 1.88 µM
10 | Cc1ncc(C#Cc2c(C)ncnc2N2CCOCC2)cc1NS(C)(=O)=O [Example I-37, N-[2-Methyl-5-(4-methyl-6-morpholin-4-yl-pyrimidin-5-ylethynyl)-pyridin-3-yl]-methanesulfonamide] | 0.001 µM | 0.903 µM | 0.318 µM | 0.966 µM | 0.134 µM | 0.416 µM
11 | Cc1ncc(C#Cc2c(C)ncnc2N2CCOCC2)cc1NS(=O)(=O)C(C)C [Example I-38, Propane-2-sulfonic acid [2-methyl-5-(4-methyl-6-morpholin-4-yl-pyrimidin-5-ylethynyl)-pyridin-3-yl]-amide] | 0.002 µM | 0.829 µM | 0.642 µM | 0.836 µM | 0.304 µM | 1.22 µM

Now those with a lower IC50 (PI3Kalpha), led by results:

Row | IC50 (PI3Kalpha) | Structure (SMILES) | EC50 (H460 cells) | EC50 (MB453 cells) | EC50 (U87 cells) | EC50 (MCF7 cells) | EC50 (BT474 cells)
12 | 0.00046 µM | Cc1ncnc(N2CCOCC2)c1C#Cc1cncc(NS(=O)(=O)c2ccccc2)c1 [Example I-19, N-[5-(4-Methyl-6-morpholin-4-yl-pyrimidin-5-ylethynyl)-pyridin-3-yl]-benzenesulfonamide] | 0.319 µM | 0.387 µM | 0.707 µM | 0.056 µM | 0.373 µM
13 | 0.00046 µM | Cc1ncnc(N2CCOCC2)c1C#Cc1cncc(NS(=O)(=O)c2ccc(F)cc2F)c1 [Example I-20, 2,4-Difluoro-N-[5-(4-methyl-6-morpholin-4-yl-pyrimidin-5-ylethynyl)-pyridin-3-yl]-benzenesulfonamide] | 0.391 µM | 0.281 µM | 0.521 µM | 0.022 µM | 0.153 µM
14 | 0.00053 µM | Cc1ncnc(N2CCOCC2)c1C#Cc1cncc(NS(=O)(=O)c2cccs2)c1 [Example I-21, Thiophene-2-sulfonic acid [5-(4-methyl-6-morpholin-4-yl-pyrimidin-5-ylethynyl)-pyridin-3-yl]-amide] | 0.357 µM | 0.155 µM | 0.34 µM | 0.04 µM | 0.196 µM
15 | 0.00063 µM | CCc1ncnc(N2CCOCC2)c1C#Cc1cnc(OC)c(NS(=O)(=O)c2ccc(F)cc2F)c1 [Example I-25, N-[5-(4-Ethyl-6-morpholin-4-yl-pyrimidin-5-ylethynyl)-2-methoxy-pyridin-3-yl]-2,4-difluoro-benzenesulfonamide] | 0.015 µM | 0.046 µM | 0.104 µM | 0.011 µM | 0.022 µM
16 | 0.00059 µM | CCc1ncnc(N2CCOCC2)c1C#Cc1cnc(OC)c(NS(=O)(=O)c2ccccc2)c1 [Example I-26, N-[5-(4-Ethyl-6-morpholin-4-yl-pyrimidin-5-ylethynyl)-2-methoxy-pyridin-3-yl]-benzenesulfonamide] | 0.021 µM | 0.061 µM | 0.097 µM | 0.009 µM | 0.028 µM
17 | 0.00044 µM | COc1ncc(C#Cc2c(C)ncnc2N2CCOCC2)cc1NS(=O)(=O)c1ccc(F)cc1F [Example I-29, 2,4-Difluoro-N-[2-methoxy-5-(4-methyl-6-morpholin-4-yl-pyrimidin-5-ylethynyl)-pyridin-3-yl]-benzenesulfonamide] | 0.011 µM | 0.028 µM | 0.084 µM | 0.003 µM | 0.01 µM
18 | 0.00043 µM | Cc1ncc(C#Cc2c(C)ncnc2N2CCOCC2)cc1NS(=O)(=O)c1ccc(F)cc1 [Example I-30, 4-Fluoro-N-[2-methyl-5-(4-methyl-6-morpholin-4-yl-pyrimidin-5-ylethynyl)-pyridin-3-yl]-benzenesulfonamide] | 0.23 µM | 0.148 µM | 0.385 µM | 0.021 µM | 0.122 µM
